# Assay results from patent US20070197599A1, “HYDROXYLAMINES AND DERIVATIVES AS ANTI-ANGIOGENIC AGENTS” (priority 2006, published 2007).
# System: bFGF-induced angiogenesis in the CAM model
# Experiment: bFGF-induced angiogenesis in the CAM model (TPH)
# Type: in vivo, chick
# Protocol: Neovascularization was examined by previously described methods (see references at the end of Example 5). Ten-day-old fertilized chicken eggs were incubated at 37° C. with 55% relative humidity. In the dark with the help of candling lamp and using a hypodermic needle a small hole was punctured in the shell covering the air sac. A second hole was punctured on the wider side of the egg above an avascular area of the embryonic membrane. An artificial air sac was created below the second hole by applying gentle vacuum to the first hole using a small rubber squeeze bulb. The vacuum caused the separation of chorioallantoic membrane (CAM) from the shell. An approximately 1.0 cm^2 widow was cut in the shell over the dropped CAM with the use of a mini drill. The underlying CAM was accessed through this small window.
# Filter disks were punched using a small puncher from filter paper #1 (Whatman International, United Kingdom). Filter disks were soaked in 3 mg/ml cortisone acetate solution (95% ethanol and water) and air-dried under sterile condition. For inducing angiogenesis, sterile filter disks were saturated with bFGF (1 μg/ml) or other pro-angiogenesis factors and control disks were saturated with PBS without Calcium and Magnesium.
# Using sterile forceps one filter/CAM was placed from the window. The window was sealed with Highland brand transparent tape. After 24 hr, 10-25 µl of test agent (inhibitor) was injected intravenously or added topically into the CAM membrane of bFGF or other pro-angiogenesis factors stimulated CAMs. • Control filter disks received PBS without Calcium and Magnesium. • After 48 hr, CAM tissue directly beneath filter disk was harvested and placed in a 35-mm Petri dish. Eight-Ten eggs/treatment group was used.
# A pro-angiogenic agent (see Examples, below) was added to induce new blood vessel branches on the CAM of 10-day old embryos. Sterile disks of #1 filter paper (Whatman International, United Kingdom) were pre-treated with 3 mg/ml cortisone acetate, and air dried under sterile conditions. The disks were then suspended in PBS (Phosphate Buffered Saline) and placed on growing CAMs. Filters treated with TPH (TEMPOL-H) or TEMPOL and/or H2O2 or TPH and/or bFGF or VEGF were placed on the first day of the 3-day incubation.
# Digital Images and Microscopic analysis of CAM sections: CAM sections from Petri dish were examined using SV6 stereomicroscope (Karl Zeiss) at 50× magnification. Digital images were captured using a 3-CCD color video camera system (Toshiba America, New York, N.Y.). These images were analyzed using Image-Pro Plus software (Media Cybernetics). The number of branch points in blood vessels within the circular region superimposed to the area of a filter disk was counted for each section. After incubation at 37° C. with 55% relative humidity for 3 days, the CAM tissue directly beneath each filter disk was resected from control and treated CAM samples. Tissues were washed three times with PBS. Sections were placed in a 35-mm Petri dish (Nalge Nunc; Rochester, N.Y.) and were examined under a SV6 stereomicroscope (Karl Zeiss; Thornwood, N.Y.) at 50× magnification. Digital images of CAM sections adjacent to filters were collected using a 3-CCD color video camera system (Toshiba America; New York, N.Y.) and analyzed with the Image-Pro Plus software (Media Cybernetics; Silver Spring, Md.). The number of vessel branch points contained in a circular region equal to the area of a filter disk was counted for each section. Percent inhibition data are expressed as the quotient of the experimental value minus the negative control value divided by the difference between the positive control value and the negative control value. One image was counted in each CAM preparation, and findings from eight CAM preparations were analyzed for each treatment condition. In addition, each experiment was performed three times. […]
compound,measurement,setting,value
CC1(C)CC(O)CC(C)(C)N1O [TPH],inhibition of bFGF-induced angiogenesis,100-400 μg,dose-dependent inhibition
same,Mean % Inhibition ± SD,bFGF (1 μg/ml) + TPH 100 μg,20 ± 12%
same,Mean Branch points ± SEM,bFGF (1 μg/ml) + TPH 100 μg,172 ± 12.4
same,Mean % Inhibition ± SD,bFGF (1 μg/ml) + TPH 200 μg,45.3 ± 7.5 %
same,Mean Branch points ± SEM,bFGF (1 μg/ml) + TPH 200 μg,147.2 ± 7.5
same,Mean % Inhibition ± SD,bFGF (1 μg/ml) + TPH 400 μg,58.7 ± 10.9 %
same,Mean Branch points ± SEM,bFGF (1 μg/ml) + TPH 400 μg,133.8 ± 10.8
same,Mean % Inhibition ± SD,bFGF (1 μg/ml) + TPH 800 μg,28.1 ± 6.8 %
same,Mean Branch points ± SEM,bFGF (1 μg/ml) + TPH 800 μg,164.2 ± 6.7
